Columns and labels:
[1] = molecular target: T1, DCP2 enzyme (Schizosaccharomyces pombe, UniProt O13828); experiment: Decapping enzyme stability test; format: biochemical; conditions: for Decapping rate (%) of DCP2 enzyme: 30 pmol RNA, 50 U mRNA decapping enzyme, 37° C., 45 minutes; for decapping rate lower than that of HN3002: difference to HN3002; for decapping rate lower than that of N-7413: difference to N-7413; for decapping rate lower than that of YK-CAP-001: difference to YK-CAP-001; for decapping rate lower than that of YK-CAP-002: difference to YK-CAP-002; for decapping rate lower than that of compound 14: difference to compound 14; for decapping rate lower than that of m6A: difference to m6A
T1 construct: purchased New England Biolabs
T1 sequence (O13828 1-243 limits assumed): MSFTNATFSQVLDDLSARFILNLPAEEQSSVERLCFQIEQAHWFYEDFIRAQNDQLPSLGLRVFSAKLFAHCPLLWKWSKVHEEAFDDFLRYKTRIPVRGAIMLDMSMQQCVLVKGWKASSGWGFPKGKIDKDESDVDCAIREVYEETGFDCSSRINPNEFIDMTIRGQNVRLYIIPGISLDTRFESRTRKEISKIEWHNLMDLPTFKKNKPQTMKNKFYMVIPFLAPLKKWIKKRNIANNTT
T1 sequence (Q9P805 1-127 partner): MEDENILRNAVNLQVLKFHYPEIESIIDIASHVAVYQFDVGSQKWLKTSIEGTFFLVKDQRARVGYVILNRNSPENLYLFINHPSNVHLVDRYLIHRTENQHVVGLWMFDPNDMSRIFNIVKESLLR
T1 sequence (Q10108 155-180 partner limits assumed): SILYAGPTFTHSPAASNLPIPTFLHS
Description: 30 pmol of RNAs purified by polyacrylamide gel electrophoresis (PAGE) was subjected to an enzymatic reaction with 50 U of mRNA decapping enzyme (New England Biolabs) and 1×MDE buffer at 37° C. for 45 minutes. The enzymatic reactants were subjected to PAGE and stained with SYBR Green II (Lonza), followed by observation of the post-electrophoresis gel image on a Typhoon FLA 7000 (GE Healthcare) instrument. The electrophoresis band intensity ratio of RNA capping to RNA decapping was counted using ImageQuant (GE Healthcare) software, and the decapping rate of the decapping enzyme was calculated (as shown in Table 6).

[2] = molecular target: T7 RNA polymerase (Escherichia phage T7, UniProt P00573); experiment: Capping rate of in vitro transcribed mRNA by LC-MS; format: biochemical; conditions: for capping rate higher than that of compound 14: difference to compound 14
T7 RNA polymerase, sequence (P00573 whole entry): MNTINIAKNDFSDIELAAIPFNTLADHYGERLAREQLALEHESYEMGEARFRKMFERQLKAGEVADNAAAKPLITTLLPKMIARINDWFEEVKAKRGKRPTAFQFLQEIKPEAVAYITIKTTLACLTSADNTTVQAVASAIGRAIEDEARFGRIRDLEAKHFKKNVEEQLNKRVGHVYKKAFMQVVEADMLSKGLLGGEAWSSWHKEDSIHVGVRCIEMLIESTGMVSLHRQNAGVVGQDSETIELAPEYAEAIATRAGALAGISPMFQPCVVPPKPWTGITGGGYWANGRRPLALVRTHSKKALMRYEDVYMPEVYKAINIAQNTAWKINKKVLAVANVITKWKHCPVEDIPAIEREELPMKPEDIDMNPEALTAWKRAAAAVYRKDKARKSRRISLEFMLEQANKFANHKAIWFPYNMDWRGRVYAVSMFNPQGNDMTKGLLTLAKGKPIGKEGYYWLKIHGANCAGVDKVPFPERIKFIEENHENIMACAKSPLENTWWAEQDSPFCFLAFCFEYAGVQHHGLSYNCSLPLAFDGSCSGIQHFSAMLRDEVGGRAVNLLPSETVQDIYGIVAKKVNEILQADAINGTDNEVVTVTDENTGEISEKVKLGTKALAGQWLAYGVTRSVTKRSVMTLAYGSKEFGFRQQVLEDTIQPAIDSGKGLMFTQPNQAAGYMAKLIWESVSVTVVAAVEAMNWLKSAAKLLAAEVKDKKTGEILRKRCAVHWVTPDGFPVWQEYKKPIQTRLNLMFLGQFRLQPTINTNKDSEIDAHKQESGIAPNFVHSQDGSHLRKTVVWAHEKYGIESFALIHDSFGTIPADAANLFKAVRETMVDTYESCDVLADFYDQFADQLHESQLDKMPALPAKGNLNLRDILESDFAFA
Description: YK-CAP-001 to 006 and compound 14 in Table 1 were respectively used as cap analogs.
During the experiment, the volume of materials required for the system was first calculated, and then sample addition was conducted. The system was first added with sterile enzyme-free water, followed by the sequential addition of 10× buffer, NTPs, and cap analogs, mixed well, and gently centrifuged. Nuclease inhibitors, inorganic pyrophosphatase, T7 RNA polymerase, and linearized DNA templates were then added thereto. The system was mixed well, gently centrifuged, and incubated at 37° C. After 2 hours of incubation, the system was added with 1 U of DNase I and incubated at 37° C. for another 30 minutes. The mRNA precipitate was then washed with 75% ethanol, and after the ethanol was briefly evaporated to dryness, the mRNA was redissolved in sterile enzyme-free water.
(4) The obtained mRNA was subjected to an annealing reaction with a probe.
The annealing reaction was performed in a PCR instrument: 95° C. for 5 minutes; 65° C. for 2 minutes; 55° C. for 2 minutes; 40° C. for 2 minutes; 22° C. for 2 minutes.
(5) Magnetic bead pretreatment and probe binding: 100 μL of magnetic beads was placed on a magnetic frame for pretreatment. The magnetic bead solution was added with 120 μL of sample and incubated at room temperature for 30 minutes with slow mixing.
(6) mRNA splicing and obtaining the 5′ single-strand sequence bound to the probe
The mixture was added with 20 μL of RNase H (5 U/μL) and incubated at 37° C. for 3 hours with mixing every half hour. After incubation, the magnetic beads were washed and then added with 100 μL of 75% methanol heated to 80° C. The mixture was heated to 80° C. on a heating plate, held for 3 minutes, then placed on a magnetic frame to aspirate the supernatant, and dried at room temperature for 45 minutes to a volume of 10 μL using a centrifugal evaporator. The sample was then resuspended in 50 μL of 100 μM EDTA/1% MeOH and ready for LC-MS analysis to determine the capping of RNA in the transcription reaction. Since there is a significant difference in molecular weight between capped and uncapped bases, the capping rate of mRNA transcription initiated by different cap analogs can be determined based on the difference in molecular mass.

## COC1C(OP(=O)([O-])OC[C@H]2O[C@@H](n3cnc4c(=O)[nH]c(N)nc43)C(O)C2O)[C@@H](COP(=O)(O)OP(=O)(O)OP(=O)(O)OC[C@]23O[C@@H]([n+]4cn(C)c5c(=O)[nH]c(N)nc54)C(O[C@H]2CC(=O)N(C)C)C3O)O[C@H]1n1cnc2c(N)ncnc21 (some centres unmarked) [YK-CAP-003]
[1]
  Decapping rate (%) of DCP2 enzyme: 11.8%
  decapping rate lower than that of HN3002: 11.4%
  decapping rate lower than that of N-7413: 36.8%
  decapping rate lower than that of YK-CAP-001: 14.5%
  decapping rate lower than that of YK-CAP-002: 12.8%
  decapping rate lower than that of compound 14: 17.0%
  decapping rate lower than that of m6A: 15.7%
[2]
  capping rate higher than that of compound 14: 17.3%

## COC1C(OP(=O)([O-])OC[C@H]2O[C@@H](n3cnc4c(=O)[nH]c(N)nc43)C(O)C2O)[C@@H](COP(=O)(O)OP(=O)(O)OP(=O)(O)OC[C@]23O[C@@H]([n+]4cn(C)c5c(=O)[nH]c(N)nc54)C(O[C@H]2CC(F)F)C3O)O[C@H]1n1cnc2c(N)ncnc21 (some centres unmarked) [YK-CAP-004]
[1]
  Decapping rate (%) of DCP2 enzyme: 10.3%
  decapping rate lower than that of HN3002: 12.9%
  decapping rate lower than that of N-7413: 38.3%
  decapping rate lower than that of YK-CAP-001: 16.0%
  decapping rate lower than that of YK-CAP-002: 14.3%
  decapping rate lower than that of compound 14: 18.5%
  decapping rate lower than that of m6A: 17.2%
[2]; difference to YK-CAP-001
  capping rate higher than that of YK-CAP-001: 23.2%
[2]; difference to YK-CAP-002
  capping rate higher than that of YK-CAP-002: 26.1%
[2]
  capping rate higher than that of compound 14: 18.8%
[2]; mRNA transcribed with the cap analog, LC-MS
  Capping rate: 96.3%

## COC1C(OP(=O)([O-])OC[C@H]2O[C@@H](n3cnc4c(=O)[nH]c(N)nc43)C(O)C2O)[C@@H](COP(=O)(O)OP(=O)(O)OP(=O)(O)OC[C@]23O[C@@H]([n+]4cn(C)c5c(=O)[nH]c(N)nc54)C(O[C@H]2CCS(C)(=O)=O)C3O)O[C@H]1n1cnc2c(N)ncnc21 (some centres unmarked) [YK-CAP-005]
[1]
  Decapping rate (%) of DCP2 enzyme: 12.8%
  decapping rate lower than that of HN3002: 10.4%
  decapping rate lower than that of N-7413: 35.8%
  decapping rate lower than that of YK-CAP-001: 13.5%
  decapping rate lower than that of YK-CAP-002: 11.8%
  decapping rate lower than that of compound 14: 16.0%
  decapping rate lower than that of m6A: 14.7%
[2]
  capping rate higher than that of compound 14: 17.7%

## COC1C(OP(=O)([O-])OC[C@H]2O[C@@H](n3cnc4c(=O)[nH]c(N)nc43)C(O)C2O)[C@@H](COP(=O)(O)OP(=O)(O)OP(=O)(O)OC[C@]23O[C@@H]([n+]4cn(C)c5c(=O)[nH]c(N)nc54)C(O[C@H]2CCS(=O)(=O)N(C)C)C3O)O[C@H]1n1cnc2c(N)ncnc21 (some centres unmarked) [YK-CAP-006]
[1]
  Decapping rate (%) of DCP2 enzyme: 11.2%
  decapping rate lower than that of HN3002: 12.0%
  decapping rate lower than that of N-7413: 37.4%
  decapping rate lower than that of YK-CAP-001: 15.1%
  decapping rate lower than that of YK-CAP-002: 13.4%
  decapping rate lower than that of compound 14: 17.6%
  decapping rate lower than that of m6A: 16.3%
[2]
  capping rate higher than that of compound 14: 17.6%

Source: patent US12551500B2, “C6′-substituted locked nucleic acid-modified cap analog and use thereof” (Hangzhou Tianlong Pharmaceutical Co., Ltd., priority 2024, dated 2026)
